The source of these data is patent publication US6355616B1, “Derivative compounds derived from or based on bactericidal/permeability-increasing protein” (priority 1999, dated 2002).

One assay concerns Candida albicans SLU-1. Briefly: Radial diffusion assay. The assay is classed as cell-based. The note with it: 30 mm^2 area of growth inhibition, calculated by PROBIT analysis. The method, then: In the radial diffusion assay procedures, the CA-1 cultures and derivatized peptide solutions were prepared as in the broth microdilution assay procedure described above, i.e., CA-1 was grown to exponential phase in SDB. Ten (10) mL of molten underlayer agarose comprising 3% Sabouraud Dextrose broth, 1% agarose (Pharmacia, Piscataway, N.J.), 0.02% Tween 20, and 10 mM sodium phosphate at pH 7.4, was added to polystyrene tubes and maintained in a 56° C. water bath until the addition of yeast. Tubes were cooled to approximately 45° C., yeast were added to give a final concentration of 1×10^6 CFU/mL, and the tubes were mixed again by inverting. The contents were poured into leveled, square petri dishes and distributed evenly. […] A series of wells were punched into the hardened agarose using a sterile 3 mm punch attached to a vacuum apparatus to achieve a uniform, 3 mm diameter well.
Derivatized peptide sequences to be assayed were 2-fold serially diluted in 10 mM Dulbecco's PBS (D-PBS) starting from a concentration of approximately […]. Five μL of each dilution were added to each well and the plates were incubated at 37° C. for 3 hours to allow for complete diffusion of the test compounds. An overlayer of 10 mL of molten agarose comprising 6% Sabouraud Dextrose broth, 1% agarose, and 10 mM sodium phosphate, pH 7.4, (at approximately 45° C.) was then added and plates were incubated overnight at 37° C. Following this overnight incubation, a dilute Coomassie solution was poured into the plates and allowed to stain for 24 hours to enhance visualization of the zones.
Clear zones of growth inhibition around each well were measured with calipers. The actual area of growth inhibition (mm^2) was calculated by subtracting the area of the well. Table II below sets out the results of the radial diffusion assays for a series of tested peptide-based constructs in terms of the number of picomoles (pmol) of compound required to establish a 30 mm^2 area of growth inhibition of Candida albicans SLU-1 calculated by PROBIT analysis (e.g., calculated from regression of the linear portion of log-concentration dose-response curve, log pmol/well vs. net area of inhibition).

Assay [1] has as its system Candida albicans designated CA-1, Strain SLU-1. The class given is cell-based. As to conditions: C. albicans SLU1; 24 hours at 37° C.; OD 595 nm below 0.1. How it is done:
In each broth microdilution assay screening procedure, a colony of Candida albicans designated CA-1, Strain SLU-1 that was received from the laboratories of G. Matuschak and A. Lechner, St. Louis University Hospital, St. Louis, Mo., where the strain was maintained, was inoculated into a tube containing 5 mL Sabouraud Dextrose broth (2% dextrose, 1% neopeptone) and incubated at 37° C. with shaking. The overnight culture was diluted 1:50 into 5 ml of fresh broth and incubated for 3 hours at 37° C. to exponential phase growth. Organisms were pelleted by centrifugation in a Beckman J-6M centrifuge for 5 minutes at 3000 rpm (1500×g) and the pellets were resuspended in 5 mL phosphate buffered saline (PBS) and the optical density (OD) at 570 nm was determined. On the basis of the determination that one OD unit equals 3×10^7 colony forming units/mL (CFU/mL), yeast cells were diluted to 5×10^3 CFU/mL in Sabouraud Dextrose broth (SBD).
Derivatized peptide sequences based on Domain III of BPI to be screened which were originally constituted in Dulbecco's-PBS, were two-fold serially diluted in SDB starting from a concentration of 128 μg/mL. Equal volumes (100 μL) of yeast suspension as prepared above and derivatized peptide solution were added to wells of a 96-well sterile, flat bottom, non-pyrogenic tissue culture microtiter plate (Costar, Cambridge, Mass.) to reach a final volume of 200 μL/well. The plate was incubated on a shaker at 37° C. for 24 hours. All assays were performed in triplicate. Following the incubation period, plates were read in an ELISA plate reader at 595 nm wavelength to determine the minimum inhibitory concentration (MIC), i.e., the lowest concentration required to reduce the optical density at 595 nm to below 0.1 OD.

The test system of another assay is Candida albicans, SLU-1. Briefly: 28-day comparative survival efficacy study in mice systemically infected with Candida albicans. As to conditions: mice infected iv with C. albicans SLU-1; two doses less than 5 mg/kg; initial experiments (p>0.5). The assay is classed as in vivo, male DBA/2 mice. The method, then:
Derivatized peptide-based constructs are tested for activity upon oral administration (oral activity) in a 28-day comparative survival efficacy study in mice systemically infected with Candida albicans. Specifically, male DBA/2 mice (Charles River Laboratories) six weeks of age are dosed with 7.9×10^4 Candida albicans, SLU-1 in 100 μL intravenously via the tail vein in a single dosage on day zero (0). However, other routes of administration, including intraperitoneal (ip) and subcutaneous (sc) routes may be administered. Amphotericin B will provide complete protection at 0.5 mg/kg qod (100% survival). Mortality data will be subjected to Kaplan-Meier survival analysis. All treatment groups may be considered statistically significant vs. saline at p values <0.05.
Treatment begins immediately thereafter with 400 μL oral gavage of either 0.5% dextrose, or derivative compound in 0.5% dextrose at various dosage levels (e.g., 10 mg/kg or 20 mg/kg) according to a prescribed dosing regimen (e.g. every other day for a total of eight times). Amphotericin B (Fungizone®) is administered intravenously at 0.5 mg/kg as a positive control every other day for a total of eight times. Twice-day monitoring (once daily on weekends and holidays) for mortality is performed. The animals treated with antiflngal derivative compound show improvement in mortality compared with the dextrose-treated controls, preferably statistically significant improvement (p-value of […]).

`CC[C@@H](C)[C@@H](NC(=O)[C@@H](CC(C)C)NC(=O)[C@@H](Cc1c[nH]c2ccccc12)NC(=O)[C@@H](CCCCN)NC(=O)c1ccccc1O)C(=O)N[C@H](CCC(N)=O)C(=O)N[C@H](CC(C)C)C(=O)N[C@H](Cc1ccccc1)C(=O)N[C@H](Cc1c[nH]cn1)C(=O)N[C@H](CCCCN)C(=O)N[C@H](CCCCN)C(N)=O` [XMP.560]: the “Radial Diffusion (pmol to achieve 30 mm^2 zone C. albicans SLU1)” value in the assay on Candida albicans SLU-1 is given as 451 pmol. In addition, in assay [1], the “Broth Microdilution (MIC values in μg/mL C. albicans SLU1)” value was 2 µg/mL. Besides, in the assay with Candida albicans, SLU-1, the “improvement in mortality compared with dextrose-treated controls” value was “did not exhibit statistically significant improvement”.
